The text below walks through data of patent US20260295137A1, “METHOD FOR REMOVING UREMIC TOXINS FROM BLOOD” (INSTITUT NATIONAL DE LA SANTÉ ET DE LA RECHERCHE MÉDICALE, priority 2023, published 2026).

The target of data set [1] is T1, human serum albumin (Homo sapiens, UniProt P02768).
T1 construct: purchased Sigma-Aldrich (Saint Quentin Fallavier, France) A9511
The data set is described as follows: Ultrafiltration competition assay: displacement of p-CS from HSA. The note with it: for free fraction of p-CS: displacer 3 mM, median (IQR), baseline 14%. Format: binding. On the procedure:
(§1) Control experiments were performed by adding the same volume of PBS instead of displacer. Then, 600 μL of samples were transferred in filtration devices (Corning®, Spin-X® UF Concentrator, Wiesbaden, Germany, MWCO: 5 kDa) and were centrifuged at 10,000 g for 5 min and 13,000 g for 15 min at room temperature. Ultrafiltrate was collected and free fraction of IS concentration were assayed fluorometrically as described thereafter.
(§2) Samples were diluted in PBS and fluorescence was measured with a Jasco FP-8300iRM Spectro-fluorometer (Jasco, Tokyo, Japan).
The free fraction of p-CS was measured using ultrafiltration experiments as described as described above.

Data set [2] addresses T1, human serum albumin. Description: Ultrafiltration competition assay: displacement of IS from HSA. Format: binding. Conditions: IS 250 μmol/L, HSA 500 μM; for free fraction of IS: displacer 3 mM, pH 7.40, median (IQR), baseline 10.0%; for concentration dependence of increase in free fraction of IS: displacer 1-3 mM. On the procedure:
as §1, §2
The free fraction of IS was measured using ultrafiltration experiments as described as described above.

A further data set in a line: In vitro hemolysis assay. Format: cell-based, bovine. The note with it: bovine, blood, 37° C., control 1.5%; for hemolysis at 4 h, 3000 µM: 3 mmol/L; for hemolysis at 4 h: MCFA 1-3 mmol/L (exact concentration not stated), median (IQR). On the procedure:
(§3) One milliliter of fresh bovine blood was incubated for 4 h at 37° C. with 50 μL of a solution of medium chain fatty acids (final concentration: 0.25, 0.5, 1, 2 or 3 mmol/L) or PBS as control. A positive control of hemolysis (taken as 100% hemolysis) was produced by incubating 1 mL of bovine blood with 0.1% (v/v) of TRITON X100 followed by 2 freeze-thaw cycles. Samples were centrifuged 2 min at 9000×g and plasma was stored at −20° C. until free hemoglobin assay. Hemolysis was estimated by the free hemoglobin concentration. Hemoglobin concentration was determined spectrophotometrically as described by Fairbanks et al (Clin Chem. 1992 January; 38 (1): 132-40). Briefly, plasma samples were diluted to 1:10 in Na2CO3 9.4 mmol/L and absorbance was read at 415 nm, 450 nm and 700 nm on a microplate reader (Tecan, Lyon, France).
(§4) Free hemoglobin concentration was calculated using the following equation: […]
(§5) Wherein: • fHb is the concentration of free hemoglobin in g/L, • A is the absorbance at the specified wavelength, • d is the dilution factor.
(§6) Results were expressed as percent of total hemolysis.
(§7) Fresh bovine blood was incubated for 4 h (the full duration of a typical hemodialysis session) at 37° C. in presence of MCFAs (1-3 mmol/L) and dosage of free hemoglobin in plasma was taken as an index of hemolysis (FIG. 6A-D).

The test system of the next data set is fresh bovine blood. Description: In vitro hemolysis assay. Format: cell-based. The note with it: 4 h, 37° C.; for hemolysis compared to control: 1-3 mmol/L. How it is done:
as §3, §4, §5, §6, §7

Data set [3] in a line: Hemodialysis of fresh bovine blood (closed loop): removal of IS. An excerpt: (§8) To assess the reality of the displacement and the increase of the removal of PBUT during a hemodialysis session, batches of 20 liters of fresh bovine blood were collected from the slaughterhouse under the authorization VC18731 (Oct. 4, 2018) issued from the Direction Départmentale de la Protection des Populations—Direction des Services Vétérinaires (DDPP-DSV, Lyon, France). Blood was heparinized at 3,750 UI/L with Sodium Heparin (Choay, Cheplapharm, France) and filtered on a nylon mesh. Two liters of blood (2 L) were spiked with 200 μmol/L of IS and gently stirred for 2 hours at 37° C. A 2-hour hemodialysis session was performed with Fresenius 5008 CorDiax hemodialysis generator (Fresenius, Sevres, France) and with a polysulfone-based hemodialysis membrane (FXHDF1000, 2.2 m^2, Fresenius Medical Care, Bad Homburg, Germany). Arterial and venous port were disposed in the blood batch to perform a closed loop circuit (see representation of the experimental device on FIG. 1). Blood and dialysate flow rates were set at 200 and 300 mL/min, respectively and dialysate temperature was set at 38° C. […] Blood samples were collected from the arterial lines at 0, 15, 30, 45, 60, 75, 90 and 120 minutes. Blood was centrifuged at 9,000 g for 2 minutes and plasma was stored at −20° C. […] At the beginning and the end of the experiment, hemolysis was estimated through the measurement of free hemoglobin in plasma as described above. Total protein concentration was measured according to the method of Lowry using bovine serum albumin as standard. Hematocrit was measured using a micromethod (Mondal H, Lotfollahzadeh S. Hematocrit. 2023 Jan. 2. In: StatPearls [Internet]. Treasure Island (FL): StatPearls Publishing; 2023). Briefly, 70 μL of blood was collected in a heparinized capillary tube. The end of the capillary tube was sealed with clay sealant and centrifuged at a rate of 9000 rpm for 5 min. The hematocrit level was read using a microhematocrit card reader.
(§9) 5-Hydroxyindole-2-carboxylic acid (5-HICA) was used as an internal standard in all experiments. Plasma samples were centrifugated at 17 000 rpm for 5 minutes. 125 μL of the supernatant was then pretreated using the Ostro Pass-through Sample Preparation Device (Waters, Saint-Quentin-en-Yvelines, France), including an in-well protein precipitation with acetonitrile (375 μL) in combination with a pass-through method that allows a good extraction. Eluants were evaporated to dryness in a gentle stream of nitrogen gas. […] Total PBUT concentrations were determined by a reverse phase HPLC with an isocratic flow at 0.2 ml/min. p-CS and IS were determined by fluorescence analysis (excitation λex: 270 nm; emission λem: 320 nm).

A short description of data set [4]: In vivo hemodialysis in anesthetized pigs: removal of IS. The note with it: octanoate vs saline, 2 h HD; P<0.05.
Another data set relates to pigs. Description: In vivo hemodialysis in anesthetized pigs: tolerance.
The nature of data set [5]: In vivo hemodialysis in anesthetized pigs: removal of p-CS. Conditions: octanoate vs saline, 2 h HD; P<0.05.
For the next data set, the system named is bovine red blood cells. Description: Hemodialysis of fresh bovine blood: hematocrit, hemolysis, plasma protein. The note with it: continuous infusion of octanoate for 2 h.
The nature of data set [6]: Hemodialysis of fresh bovine blood (closed loop): removal of p-CS.
Description: as §8, §9

The conditions of data set [7]: background art; cited from earlier work.

Molecules are shown by their SMILES.

T1 sequence (P02768 25-609): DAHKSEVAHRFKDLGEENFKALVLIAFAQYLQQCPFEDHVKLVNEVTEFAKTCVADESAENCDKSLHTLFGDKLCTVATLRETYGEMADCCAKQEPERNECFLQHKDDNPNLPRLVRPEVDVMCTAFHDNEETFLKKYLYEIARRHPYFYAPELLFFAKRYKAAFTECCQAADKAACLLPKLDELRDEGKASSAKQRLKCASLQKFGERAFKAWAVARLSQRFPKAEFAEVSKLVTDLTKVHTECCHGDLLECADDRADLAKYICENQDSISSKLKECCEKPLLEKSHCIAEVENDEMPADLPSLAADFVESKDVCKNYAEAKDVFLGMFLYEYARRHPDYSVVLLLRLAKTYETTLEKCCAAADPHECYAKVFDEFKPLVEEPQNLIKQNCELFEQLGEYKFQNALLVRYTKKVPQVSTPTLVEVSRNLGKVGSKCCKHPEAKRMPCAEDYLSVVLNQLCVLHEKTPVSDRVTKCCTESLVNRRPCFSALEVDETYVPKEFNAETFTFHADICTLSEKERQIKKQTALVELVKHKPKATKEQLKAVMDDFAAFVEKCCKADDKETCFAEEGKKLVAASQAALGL

Turning to `CCCCCCCCCC(=O)O` [Decanoate, decanoic acid], the “free fraction of p-CS” value at human serum albumin [1] was 59% (57%-63%). Also, the “free fraction of IS” value on human serum albumin [2] is 54% (52%-58%). Further, the hemolysis at 4 h, 3000 µM in the data set “In vitro hemolysis assay” was determined as 21.9%.
In the case of `CCCCCCCCCCCC(=O)O` [Dodecanoate, dodecanoic acid], at human serum albumin [2], the “free fraction of IS” value is given as 42% (41%-44%) and the “concentration dependence of increase in free fraction of IS” value is recorded as “dose dependently increased the free fraction of IS”. Also, the concentration triggering hemolysis entry in the data set on fresh bovine blood (bovine blood) was “higher than 0.25 mmol/L”. Besides, in the data set “In vitro hemolysis assay” (0.5 mmol/L), the hemolysis at 4 h, 500 µM was 15.3%. Also, the hemolysis at 4 h, 3000 µM in “In vitro hemolysis assay” amounted to 24.9%.
Turning to `CCCCCC(=O)O` [Hexanoate, hexanoic acid], the “free fraction of p-CS” value on human serum albumin [1] was 36% (34%-41%). In addition, the “concentration dependence of increase in free fraction of p-CS” value at human serum albumin [1] (highest concentration 3 mM) was “only increased the free fraction of p-CS at the highest concentration tested”. On human serum albumin [2], the “free fraction of IS” value is recorded as 36% (34%-39%) and the “concentration dependence of increase in free fraction of IS” value was “only increased the free fraction of IS at the highest concentration tested”. For the same compound, the “hemolysis compared to control” value with fresh bovine blood was “did not trigger any significant hemolysis”. The compound further returned a hemolysis at 4 h in the data set “In vitro hemolysis assay” of 3.6%.
With `CCCCCCCC(=O)O` [Octanoate, octanoic acid], in [3] (2 h HD, octanoate infusion, control 36%, p<0.001), the “fractional removal of IS” value worked out at 91%. Besides, the “half-life of IS in plasma” value in data set [3] (octanoate infusion, control 36.4 min) was 15.2 min. Further, in data set [3] (octanoate vs control, p<0.001), the “increase of fractional removal of IS” value came to 2.5 folds. Further, the “toxin removal, IS” value in [3] (per-dialytic infusion of octanoate, control 1.5 μmol/min) is 3.5 µmol/min. For the same compound, the “increase of dialytic clearance of IS” value in data set [4] is on record as “+113%”. Further, the hemolysis result in the data set with pigs (hematocrit and free hemoglobin, sodium octanoate i.v. during HD) is given as “no hemolysis”. The tolerance entry with pigs (sodium octanoate 333 mmol/L i.v. at 18 mL/h, 2 h HD) is “Tolerance of all animals was good and no side effect was noticed”. Besides, the “increase of dialytic clearance of p-CS” value in data set [5] is “+101%”. Moreover, in the data set on bovine red blood cells, the change in hematocrit result is listed as “did not elicit any significant change in hematocrit” and the “change in hemolysis levels” value is reported as “did not elicit any significant change in hematocrit or hemolysis levels”. Moreover, in the data set on fresh bovine blood, the “hemolysis compared to control” value is “did not trigger any significant hemolysis”. For the same compound, in “In vitro hemolysis assay”, the hemolysis at 4 h came to 2.3%. Also, in [6] (2 h HD, octanoate infusion, control 38%, p<0.001), the “fractional removal of p-CS” value is 88%. Besides, the “half-life of p-CS in plasma” value in data set [6] (octanoate infusion, control 20.6 min) is 12.8 min. In [6] (octanoate vs control, p<0.001), the “increase of fractional removal of p-CS” value is recorded as 2.3 folds. In addition, in data set [6] (per-dialytic infusion of octanoate, control 0.3 μmol/min), the “toxin removal, pCS” value amounted to 1 μmol/min.
Consider `CCCCC/C=C\C/C=C\CCCCCCCC(=O)O` [linoleic acid], for which the effect on dyslipidemia result in [7] was “exacerbate dyslipidemia”.
Regarding `CCCCCCCC/C=C\CCCCCCCC(=O)O` [oleic acid], in data set [7], the effect on dyslipidemia entry is recorded as “exacerbate dyslipidemia”.
